The values that follow come from ChEMBL document CHEMBL1137327, “Optimization of chromone-2-carboxamide melanin concentrating hormone receptor 1 antagonists: assessment of potency, efficacy, and cardiovascular safety” (J Med Chem, 2006).

Data set [1] is described as follows: Drug level in C57BL/6J DIO mouse plasma at 3 mg/kg, po after 22 days. Type of data set: ADME, organism-based. Also on record: dose 3 mg/kg, route oral.
Data set [2] relates to Rattus norvegicus. Briefly: Drug level in anesthetized Sprague-Dawley rat brain. It is filed as ADME, organism-based. As to conditions: in vivo.
Data set [3] is described as follows: Half life in C57BL/6J DIO mouse plasma at 10 mg/kg, po. Type of data set: ADME, organism-based. Also on record: dose 10 mg/kg, route oral.
For data set [4], the species on record is Canis familiaris. Put plainly: Decrease in heart rate in anasthetized Beagle dog at 10.94 ug/ml relative to control. Type of data set: functional, Canis lupus familiaris. Also noted: scale not given: the % may be the effect or the level left.
Data set [5] has as its system Rattus norvegicus. Briefly: Drug level in anesthetized Sprague-Dawley rat plasma. Type of data set: ADME, organism-based. As to conditions: in vivo.
Data set [6] can be described thus: Drug level in anasthetized Beagle dog plasma at 10 mg/kg, iv after 30 mins. It is filed as ADME, organism-based, Canis lupus familiaris. Also noted: dose 10 mg/kg, route intravenous.
The nature of data set [7]: Drug level in C57BL/6J DIO mouse brain at 3 mg/kg, po after 22 days. The conditions noted are these: read-out: Drug uptake. Also noted: dose 3 mg/kg, route oral. Type of data set: ADME, organism-based.
In data set [8] the test system is Mus musculus. Briefly: Decrease in body weight of C57BL/6J DIO mouse at 10 mg/kg, po after 22 days relative to control. It is filed as functional. Also noted: scale not given: the % may be the effect or the level left.
Data set [9] in a line: Drug level in C57BL/6J DIO mouse plasma at 10 mg/kg, po after 22 days. It is filed as ADME, organism-based. Also noted: dose 10 mg/kg, route oral.
The nature of data set [10]: AUC in C57BL/6J DIO mouse plasma at 10 mg/kg, po. It is filed as ADME, organism-based. Also on record: dose 10 mg/kg, route oral.
Data set [11] is filed under the species Canis familiaris. Put plainly: Decrease in heart rate in anasthetized Beagle dog at 36.13 ug/ml relative to control. It is filed as functional, Canis lupus familiaris. Also on record: scale not given: the % may be the effect or the level left.
The nature of data set [12]: Cmax in C57BL/6J DIO mouse plasma at 10 mg/kg, po. As to conditions: read-out: Cp. Also noted: dose 10 mg/kg, route oral. It is filed as ADME, organism-based.
Data set [13] in a line: Drug level in anasthetized Beagle dog plasma at 30 mg/kg, iv after 30 mins. It is filed as ADME, organism-based, Canis lupus familiaris. Also on record: dose 30 mg/kg, route intravenous.
Data set [14] relates to Mus musculus. Briefly: AUC in C57BL/6J DIO mouse brain at 10 mg/kg, po. Type of data set: ADME, organism-based. Also on record: dose 10 mg/kg, route oral. The conditions noted are these: in vivo.
A short description of data set [15]: Drug level in C57BL/6J DIO mouse brain at 10 mg/kg, po after 22 days. Type of data set: ADME, organism-based. Also noted: dose 10 mg/kg, route oral. As to conditions: read-out: Drug uptake.
Data set [16] in a line: Cmax in C57BL/6J DIO mouse brain at 10 mg/kg, po. It is filed as ADME, organism-based. Also on record: dose 10 mg/kg, route oral.
Data set [17] is described as follows: Drug level in anasthetized Beagle dog plasma at 3 mg/kg, iv after 30 mins. Type of data set: ADME, organism-based, Canis lupus familiaris. Also noted: dose 3 mg/kg, route intravenous.
Data set [18] deals with Mus musculus. Briefly: Decrease in body weight of C57BL/6J DIO mouse at 3 mg/kg, po after 22 days relative to control. Type of data set: functional. Also on record: scale not given: the % may be the effect or the level left.
Data set [19] in a line: Ratio of AUC in brain to plasma of C57BL/6J DIO mouse at 10 mg/kg, po. It is filed as ADME, organism-based. Also on record: dose 10 mg/kg, route oral. The conditions noted are these: brain and plasma, read-out: Ratio AUC.
The nature of data set [20]: Half life in C57BL/6J DIO mouse brain at 10 mg/kg, po. It is filed as ADME, organism-based. Also on record: dose 10 mg/kg, route oral.

In the case of `O=C(NC1CCN(Cc2ccc3c(c2)OCO3)CC1)c1cc(=O)c2ccc(F)cc2o1`, the concentration at 528 h turned out to be 840 ng/mL in data set [1], 1110 ng/g in [7], 3270 ng/mL in data set [9] and 4670 ng/g in data set [15]. Further, in the data set on Rattus norvegicus [2], the Drug uptake is 126 µg/g. Besides, the results for the half-life in data set [3] and in data set [20] were 2.5 h and 2.4 h, respectively. Also, the Activity in the data set listed under Canis familiaris [4] turned out to be 22%; in the data set with Mus musculus [8], 7%; in the data set listed under Canis familiaris [11], 11%; with Mus musculus [18], 0%. The Cp in the data set with Rattus norvegicus [5] turned out to be 62000 ng/mL. The concentration at 0.5 h in data set [6] was determined as 25.8 µM; in [13] it was 85.1 µM; in [17], 5.9 µM. For the same compound, the AUC in data set [10] was 9290 ng·h/mL; with Mus musculus [14], 12658 ng·h/g. The Cmax in data set [12] is 1780 ng/mL; in data set [16], 4370 ng/g. Further, the Kp in data set [19] was determined as 1.4.
